Measured values published in patent US12077503B2, “Substituted cyclic amides and their use as herbicides” (FMC CORPORATION, priority 2015, dated 2024).

Experiments:
Type in all cases: in vivo
[1] = system: barnyardgrass (Echinochloa crus-galli); assay: Test G Pre-Emergence Protocol; conditions: Echinochloa crus-galli, pre-emergence, 312 h, evaluated after 13 days; for pest or weed control at 15.625 g/ha: 15.625 g ai/ha, read-out: Barnyard grass damage rating (100=total damage to plant; 0=no damage to plant); for pest or weed control at 62.5 g/ha: 62.5 g ai/ha, 100=total damage to plant, 0=no damage to plant, read-out: plant damage rating, Barnyardgrass; for pest or weed control at 250 g/ha: 250 g ai/ha, read-out: Barnyardgrass damage rating (100=total damage to plant; 0=no damage to plant)
Outline: (§1)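 Pots of seeds in standard soil were grown for one day in a glasshouse (24/16 °C day/night, 14 h light, 65% humidity), then sprayed with compound in acetone/water 50:50 with 0.5% Tween 20 at 15.625, 62.5 or 250 g/ha. Damage was scored after 13 days on a 0 (none) to 100 (total) scale.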

corn (Zea mays) [2] = assay: Test G Pre-Emergence Protocol; conditions: Zea mays, pre-emergence, 312 h, evaluated after 13 days; for plant injury at 15.625 g/ha: 15.625 g ai/ha; for plant injury at 15.625 g/ha / plant injury at 250 g/ha: read-out: Corn damage rating (100=total damage to plant; 0=no damage to plant); for plant injury at 62.5 g/ha: 62.5 g ai/ha, 100=total damage to plant, 0=no damage to plant, read-out: plant damage rating, Corn; for plant injury at 250 g/ha: 250 g ai/ha
Outline: as §1

[3] = system: giant foxtail (Setaria faberi); assay: Test G Pre-Emergence Protocol; conditions: Setaria faberi, pre-emergence, 312 h, evaluated after 13 days; for pest or weed control at 15.625 g/ha: 15.625 g ai/ha; for pest or weed control at 15.625 g/ha / pest or weed control at 250 g/ha: read-out: Foxtail, Giant damage rating (100=total damage to plant; 0=no damage to plant); for pest or weed control at 62.5 g/ha: 62.5 g ai/ha, 100=total damage to plant, 0=no damage to plant, read-out: plant damage rating, Foxtail, Giant; for pest or weed control at 250 g/ha: 250 g ai/ha
Outline: as §1

[4] = system: ivy-leaved morning glory (Ipomoea hederacea); assay: Test G Pre-Emergence Protocol; conditions: Ipomoea, pre-emergence, 312 h, evaluated after 13 days; for pest or weed control at 15.625 g/ha: 15.625 g ai/ha, read-out: Morning-glory, Ivy-leaved damage rating (100=total damage to plant; 0=no damage to plant); for pest or weed control at 62.5 g/ha: 62.5 g ai/ha, 100=total damage to plant, 0=no damage to plant, read-out: plant damage rating, Morningglory, Ivy-leaved; for pest or weed control at 250 g/ha: 250 g ai/ha, read-out: Morningglory, Ivy-leaved damage rating (100=total damage to plant; 0=no damage to plant)
Outline: as §1

[5] = system: redroot pigweed (Amaranthus retroflexus); assay: Test G Pre-Emergence Protocol; conditions: Amaranthus retroflexus, pre-emergence, 312 h, evaluated after 13 days; for pest or weed control at 15.625 g/ha: 15.625 g ai/ha; for pest or weed control at 15.625 g/ha / pest or weed control at 250 g/ha: read-out: Pigweed, Redroot damage rating (100=total damage to plant; 0=no damage to plant); for pest or weed control at 62.5 g/ha: 62.5 g ai/ha, 100=total damage to plant, 0=no damage to plant, read-out: plant damage rating, Pigweed, Redroot; for pest or weed control at 250 g/ha: 250 g ai/ha
Outline: as §1

[6] = system: velvetleaf (Abutilon theophrasti); assay: Test G Pre-Emergence Protocol; conditions: Abutilon theophrasti, pre-emergence, 312 h, evaluated after 13 days; for pest or weed control at 15.625 g/ha: 15.625 g ai/ha; for pest or weed control at 15.625 g/ha / pest or weed control at 250 g/ha: read-out: Velvetleaf damage rating (100=total damage to plant; 0=no damage to plant); for pest or weed control at 62.5 g/ha: 62.5 g ai/ha, 100=total damage to plant, 0=no damage to plant, read-out: plant damage rating, Velvetleaf; for pest or weed control at 250 g/ha: 250 g ai/ha
Outline: as §1

[7] = system: barnyardgrass (Echinochloa crus-galli); assay: Test G Post-Emergence Protocol; conditions: Echinochloa crus-galli, post-emergence, 312 h; for pest or weed control at 15.625 g/ha: 15.625 g ai/ha, evaluated after 13 days (100=total damage to plant; 0=no damage to plant), read-out: Barnyardgrass damage rating; for pest or weed control at 62.5 g/ha: 62.5 g ai/ha, read-out: Barnyardgrass damage rating (100=total damage to plant; 0=no damage to plant); for pest or weed control at 62.5 g/ha / pest or weed control at 250 g/ha: evaluated after 13 days; for pest or weed control at 250 g/ha: 250 g ai/ha, read-out: damage to plant, Barnyardgrass (100=total damage to plant; 0=no damage to plant)
Outline: (§2)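 Post-emergence herbicidal damage, scored visually 0–100 at 13 days. Application at 15.625, 62.5 or 250 g/ha onto 8-day-old plants grown under glasshouse control.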

corn (Zea mays) [8] = assay: Test G Post-Emergence Protocol; conditions: Zea mays, post-emergence, 312 h; for plant injury at 15.625 g/ha: 15.625 g ai/ha, evaluated after 13 days (100=total damage to plant; 0=no damage to plant), read-out: Corn damage rating; for plant injury at 62.5 g/ha: 62.5 g ai/ha, read-out: Corn damage rating (100=total damage to plant; 0=no damage to plant); for plant injury at 62.5 g/ha / plant injury at 250 g/ha: evaluated after 13 days; for plant injury at 250 g/ha: 250 g ai/ha, read-out: damage to plant, Corn (100=total damage to plant; 0=no damage to plant)
Outline: as §2

[9] = system: giant foxtail (Setaria faberi); assay: Test G Post-Emergence Protocol; conditions: Setaria faberi, post-emergence, 312 h; for pest or weed control at 15.625 g/ha: 15.625 g ai/ha, evaluated after 13 days (100=total damage to plant; 0=no damage to plant), read-out: Foxtail, Giant damage rating; for pest or weed control at 62.5 g/ha: 62.5 g ai/ha, read-out: Foxtail, Giant damage rating (100=total damage to plant; 0=no damage to plant); for pest or weed control at 62.5 g/ha / pest or weed control at 250 g/ha: evaluated after 13 days; for pest or weed control at 250 g/ha: 250 g ai/ha, read-out: damage to plant, Foxtail, Giant (100=total damage to plant; 0=no damage to plant)
Outline: as §2

[10] = system: ivy-leaved morning glory (Ipomoea hederacea); assay: Test G Post-Emergence Protocol; conditions: Ipomoea, post-emergence, 312 h; for pest or weed control at 15.625 g/ha: 15.625 g ai/ha, evaluated after 13 days (100=total damage to plant; 0=no damage to plant), read-out: Morningglory, Ivy-leaved damage rating; for pest or weed control at 62.5 g/ha: 62.5 g ai/ha, read-out: Morningglory, Ivy-leaved damage rating (100=total damage to plant; 0=no damage to plant); for pest or weed control at 62.5 g/ha / pest or weed control at 250 g/ha: evaluated after 13 days; for pest or weed control at 250 g/ha: 250 g ai/ha, read-out: damage to plant, Morningglory, Ivy-leaved (100=total damage to plant; 0=no damage to plant)
Outline: as §2

[11] = system: redroot pigweed (Amaranthus retroflexus); assay: Test G Post-Emergence Protocol; conditions: Amaranthus retroflexus, post-emergence, 312 h; for pest or weed control at 15.625 g/ha: 15.625 g ai/ha, evaluated after 13 days (100=total damage to plant; 0=no damage to plant), read-out: Pigweed, Redroot damage rating; for pest or weed control at 62.5 g/ha: 62.5 g ai/ha, read-out: Pigweed, Redroot damage rating (100=total damage to plant; 0=no damage to plant); for pest or weed control at 62.5 g/ha / pest or weed control at 250 g/ha: evaluated after 13 days; for pest or weed control at 250 g/ha: 250 g ai/ha, read-out: damage to plant, Pigweed, Redroot (100=total damage to plant; 0=no damage to plant)
Outline: as §2

[12] = system: velvetleaf (Abutilon theophrasti); assay: Test G Post-Emergence Protocol; conditions: Abutilon theophrasti, post-emergence, 312 h; for pest or weed control at 15.625 g/ha: 15.625 g ai/ha, evaluated after 13 days (100=total damage to plant; 0=no damage to plant), read-out: Velvetleaf damage rating; for pest or weed control at 62.5 g/ha: 62.5 g ai/ha, read-out: Velvetleaf damage rating (100=total damage to plant; 0=no damage to plant); for pest or weed control at 62.5 g/ha / pest or weed control at 250 g/ha: evaluated after 13 days; for pest or weed control at 250 g/ha: 250 g ai/ha, read-out: damage to plant, Velvetleaf (100=total damage to plant; 0=no damage to plant)
Outline: as §2

| SMILES | pest or weed control at 15.625 g/ha [1] [%] | pest or weed control at 62.5 g/ha [1] [%] | pest or weed control at 250 g/ha [1] [%] | plant injury at 15.625 g/ha (corn (Zea mays) [2]) [%] | plant injury at 62.5 g/ha (corn (Zea mays) [2]) [%] | plant injury at 250 g/ha (corn (Zea mays) [2]) [%] | pest or weed control at 15.625 g/ha [3] [%] | pest or weed control at 62.5 g/ha [3] [%] | pest or weed control at 250 g/ha [3] [%] | pest or weed control at 15.625 g/ha [4] [%] | pest or weed control at 62.5 g/ha [4] [%] | pest or weed control at 250 g/ha [4] [%] | pest or weed control at 15.625 g/ha [5] [%] | pest or weed control at 62.5 g/ha [5] [%] | pest or weed control at 250 g/ha [5] [%] | pest or weed control at 15.625 g/ha [6] [%] | pest or weed control at 62.5 g/ha [6] [%] | pest or weed control at 250 g/ha [6] [%] | pest or weed control at 15.625 g/ha [7] [%] | pest or weed control at 62.5 g/ha [7] [%] | other results |
| --- | --- | --- | --- | --- | --- | --- | --- | --- | --- | --- | --- | --- | --- | --- | --- | --- | --- | --- | --- | --- | --- |
| CN1C[C@@H](c2ccc(C(F)(F)F)cc2)[C@H](C(=O)Nc2cc(Cl)nc(Cl)c2)C1=O (racemic) [Compound 1519] | 0 | 0 | 0 | 0 | 0 | 0 | 0 | 0 | 0 | 0 | 0 | 0 | 0 | 0 | 0 | 0 | 0 | 0 | 0 | 0 | pest or weed control at 250 g/ha [7]: 0%; plant injury at 15.625 g/ha (corn (Zea mays) [8]): 10%; plant injury at 62.5 g/ha (corn (Zea mays) [8]): 10%; plant injury at 250 g/ha (corn (Zea mays) [8]): 0%; pest or weed control at 15.625 g/ha [9]: 0%; pest or weed control at 62.5 g/ha [9]: 0%; pest or weed control at 250 g/ha [9]: 0%; pest or weed control at 15.625 g/ha [10]: 0%; pest or weed control at 62.5 g/ha [10]: 0%; pest or weed control at 250 g/ha [10]: 0%; pest or weed control at 15.625 g/ha [11]: 0%; pest or weed control at 62.5 g/ha [11]: 0%; pest or weed control at 250 g/ha [11]: 0%; pest or weed control at 15.625 g/ha [12]: 0%; pest or weed control at 62.5 g/ha [12]: 0%; pest or weed control at 250 g/ha [12]: 0% |
| CCc1nnc(NC(=O)[C@@H]2C(=O)N(C)C[C@H]2c2ccc(C(F)(F)F)cc2)s1 (racemic) [Compound 1558] | 0 | 0 | 10 | 0 | 0 | 0 | 0 | 0 | 0 | 0 | 0 | 0 | 0 | 0 | 10 | 0 | 0 | 0 | 0 | 10 | pest or weed control at 250 g/ha [7]: 20%; plant injury at 15.625 g/ha (corn (Zea mays) [8]): 0%; plant injury at 62.5 g/ha (corn (Zea mays) [8]): 0%; plant injury at 250 g/ha (corn (Zea mays) [8]): 0%; pest or weed control at 15.625 g/ha [9]: 0%; pest or weed control at 62.5 g/ha [9]: 0%; pest or weed control at 250 g/ha [9]: 0%; pest or weed control at 15.625 g/ha [10]: 0%; pest or weed control at 62.5 g/ha [10]: 0%; pest or weed control at 250 g/ha [10]: 0%; pest or weed control at 15.625 g/ha [11]: 0%; pest or weed control at 62.5 g/ha [11]: 0%; pest or weed control at 250 g/ha [11]: 0%; pest or weed control at 15.625 g/ha [12]: 0%; pest or weed control at 62.5 g/ha [12]: 0%; pest or weed control at 250 g/ha [12]: 0% |
